Reference: patent US11806314B2, “PDE5 inhibitor powder formulations and methods relating thereto” (Respira Therapeutics, Inc., priority 2013, dated 2023)
Structures can show the parent of a compound that is named as a salt.

Tests used:
Format in all cases: physicochemical
[1] = Intrinsic stability testing (acid, base, oxidative degradation in solution) by HPLC; conditions: acidic, basic and oxidative conditions per ICH Guidance
Method: Method: VarHCl·3H2O, HPLC grade water, 36.5% HCl, NaOH pellets, 6% H2O2 were all purchased, and 1N HCl and 1N NaOH were prepared in house. Intrinsic stability testing was performed according to International Conference on Harmonization (ICH) Guidance for Industry Q1A(R2) Stability Testing of New Drug Substances and Products (November 2003, Rev. 2). Briefly, the compound was tested for acid hydrolysis (1N HCl) and base hydrolysis (1N NaOH) at r.t. for 48 hr and at 60° C. for 4 hr. Oxidation assessment (6% H2O2) was performed at r.t. for 48 hr. The stability of VarHCl·3H2O in solution was assessed using HPLC analysis as described above in Example 1, Section A.

[2] = Dynamic vapor sorption (DVS) moisture sorption and desorption; conditions: 20° C.; for moisture sorption and desorption behavior: micronized, 0-80% P/Po
Method: DVS Analysis: No DVS results of these APIs have been previously reported. Moisture sorption and desorption behavior was assessed using a DVS-Advantage 1 (Surface Measurement Systems, Allentown, Pa.). Experimental parameters: sample % P/Po in a range of 0-80; 5% P/Po increment, equilibrium criteria, both sorption and desorption. Experiments conducted at 20° C.

[3] = Aerosol performance, Next Generation Impactor (NGI) with powder deaggregator and RS01 capsule piercing mechanism; conditions: pure drug (100% API)
Description: There are several inertia sampling apparatuses that can be used to assess aerosol performance of dry powder formulations. (<601> Aerosols, Nasal Sprays, Metered-Dose Inhalers, and Dry Powder Inhalers Monograph, in USP 29-NF 24 The United States Pharmacopoeia and The National Formulary: The Official Compendia of Standards. 2006, The United States Pharmacopeial Convention, Inc.: Rockville, Md. p. 2617-2636 (“USP<601>”).) These apparatus classify aerosol particles on the basis of the particles' aerodynamic diameter. Each stage of the impactor includes a single or series of nozzles with specific cutoff size. Particles are entrained into the apparatus. Those having sufficient inertia will impact on that particular stage collection plate, while smaller particles with insufficient inertia will remain entrained in the airstream and pass to the next stage where the process is repeated. The aerodynamic size distribution of API can be assessed by collecting the deposited API mass and the ED %, RF %, FPF % and MMAD (μm) can be calculated from the API deposition pattern. The emitted dose fraction (ED (%); Eq. 4) is determined as the percentage powder mass emitted from the initial dosing chamber/capsule relative to the total dose in capsules (nominal dose) (TD). Emitted dose (ED) includes the sum of the API mass […] deposited on the device stages. Fine particle fraction (FPF (%); Eq. 5) is expressed as a percentage of fine particle dose (FPD) below a certain aerodynamic cutoff size to ED. Respirable fraction (RF (%); Eq. 6) is defined as the percentage of FPD to total dose (TD).
Formulation aerosol performance tests were carried out using a powder deaggregator modified from that described in U.S. Patent Publication Nos. 2013/0340754 and 2013/0340747 combined with an off-the-shelf RS01 dry powder inhaler capsule piercing mechanism (Plastiape, IT) feeding method. […] The experiments were conducted at an airflow rate that gave a system pressure drop of 2 kPa (about 40 L/min, 4 L inhalation volume duration: 5.5 sec) or 4 kPa (about 60 L/min, 4 L inhalation volume duration: 3.9 sec).
Packaging: The blends were packaged into size 3 HPMC capsules. Nominal dose amounts of 3 mg were prepared for each formulation; 10 mg nominal doses were also prepared for pure drug VarBase and Var(HCl)2·xH2O formulations.
Methods: Two inertial sampling systems were used to assess aerosol performance: (1) a Next Generation Impactor® (“NGI”) (Copley Scientific, Shoreview, Minn.), and (2) a Twin Stage Liquid Impinge (“TSLI”) (Copley Scientific, Shoreview, Minn.). Aerosol performance of the VarHCl·xH2O formulation was assessed using the TSLI device, while the other formulations were all assessed using the NGI device. The NGI experiments were carried out using methods in general agreement with the USP<601>, and the TSLI experiments were carried using methods in general agreement with the British Pharmacopoeia, 2007, Vol. IV, Appendix XIIF. A291 Aerodynamic assessment of fine particles, fine particle dose and particle size distribution. The NGI experiments were run at a controlled airflow rate that gave a pressure drop of either 2 or 4 kPa across the device. Specifically, at Q=61.4 L/min with a delay time of 3.9 sec; and at Q=43.4 L/min with a delay time of 5.5 sec. Before the aerosol testing, the NGI collection plates were coated with suitable coating. Mass median aerodynamic diameter (MMAD) of aerosol particles distribution was determined based on a log-probability distribution (API particle size versus API deposition percentage) obtained from the NGI data. The TSLI experiments were run at Q=60 L/min, 4 sec to achieve ΔP≈4 kPa, with a cutoff size of 6.4 μm.

[4] = Particle size analysis of micronized APIs by laser diffraction; conditions: micronized (jet-milled), dispersed in mineral spirit
Method: Var(HCl)2·xH2O, VarBase, and VarHCl·3H2O were purchased and then micronized using a commercial dry jet-miller. The jet milling was achieved using typical jet milling conditions and a single milling process. As shown in Example 5, micronization leads to partial dehydration of VarHCl·3H2O. As such, following micronization and absent rehydration, the compound is designated as VarHCl·xH2O.
The APIs were dispersed in mineral spirit, and particle size analysis was performed by laser diffraction using a Microtrac×100 Particle Size Analyzer. Particle size span was calculated as
[formula] where Dv0.1, Dv0.5 and Dv0.9 are 10%, 50% and 90% of the volume size distributed below the respective values.

[5] = 3 mg dose, dihydrochloride hydrate

In the case of CCCc1nc(C)c2c(=O)[nH]c(-c3cc(S(=O)(=O)N4CCN(CC)CC4)ccc3OCC)nn12 [VarHCl·3H2O, vardenafil hydrochloride trihydrate], the extent of degradation [1] is reported as “significant in basic and oxidative conditions”, the “relative humidity below which water loss occurred” value ([2]; desorption phase) is reported as “lower than 15%” and the “humidity range in which the trihydrate form is stable / maintained” value ([2]; desorption phase, hydrochloride trihydrate) is reported as 10-80 % RH. The “relative humidity up to which integrity is maintained (not reaching deliquescence)” value ([2]; sorption phase) was “up to 80 % RH”.

For CCCc1nc(C)c2c(=O)[nH]c(-c3cc(S(=O)(=O)N4CCN(CC)CC4)ccc3OCC)nn12 [Var(HCl)2•xH2O (rehydrated), dihydrochloride hydrate], the “ED(%)” value [3, 5] was 71.4%, the “FPF(ED)(%)” value [3, 5] was 63.6% and the MMAD [3, 5] was 1.37 μm. The “RF(%)” value [3, 5] was 45.4%.

For CCCc1nc(C)c2c(=O)[nH]c(-c3cc(S(=O)(=O)N4CCN(CC)CC4)ccc3OCC)nn12 [VarHCl, vardenafil hydrochloride], the “moisture sorption and desorption behavior” value ([2]; hydrochloride) was “highly hygroscopic” and the “relative humidity at which a first water molecule bound to form a monohydrate” value ([2]; sorption phase) was 5%.

With CCCc1nc(C)c2c(=O)[nH]c(-c3cc(S(=O)(=O)N4CCN(CC)CC4)ccc3OCC)nn12 [VarBase, 2-[2-ethoxy-5-(4-ethylpiperazin-1-yl)sulfonylphenyl]-5-methyl-7-propyl-1H-imidazo[5,1-i][1,2,4]triazin-4-one] the DV50 [4] was 1.557 μm, the Span [4] was 1.557 and the “ED(%)” value ([3]; 3 mg dose) was 81.8%. The “FPF(ED)(%)” value ([3]; 3 mg dose) was 56.0%, the MMAD ([3]; 3 mg dose) was 1.32 μm and the “RF(%)” value ([3]; 3 mg dose) was 45.8%. For the same compound, the “ED(%)” value ([3]; 10 mg dose) was 64.2%, the “FPF(ED)(%)” value ([3]; 10 mg dose) was 37.2% and the MMAD ([3]; 10 mg dose) was 1.51 μm. For the same compound, the “RF(%)” value ([3]; 10 mg dose) was 23.9% and the “moisture sorption and desorption behavior” value [2] was “no hydration occurred”.
